According to PubChem BioAssay AID463142 (The Scripps Research Institute Molecular Screening Center, 2010):

Target: Glutathione S-transferase omega-1 (Homo sapiens) (UniProt P78417)
Assay: IC50 of human GSTO1 blockade by gel ABPP – biochemical, SE-Rh probe, in-gel fluorescence, powder samples, set 2, late-stage follow-up (AID 463142)
Settings: recombinant GSTO1, SE-Rh probe labeling

Sequence of Glutathione S-transferase omega-1 (Homo sapiens) (P78417 whole entry, looked up): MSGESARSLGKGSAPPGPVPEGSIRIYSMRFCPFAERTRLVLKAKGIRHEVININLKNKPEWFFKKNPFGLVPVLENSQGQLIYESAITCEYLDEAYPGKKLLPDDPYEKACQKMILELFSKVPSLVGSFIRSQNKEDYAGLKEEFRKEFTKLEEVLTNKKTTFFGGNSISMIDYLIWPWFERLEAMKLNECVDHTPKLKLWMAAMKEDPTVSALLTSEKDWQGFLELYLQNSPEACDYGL

IC50: 40 nM
Structure (SMILES): O=C(CCl)N(CCCNC(=O)C(F)(F)F)c1ccc(Cl)cc1
